The test system of experiment [1] is differentiated L6-myotubes. The experiment can be described thus: cAMP production relative to isoprenaline (Biological example 2 of WO 2019/053427). The format is cell-based. Conditions: 0.25 h, compound at 10 μM, activity relative to isoproterenol at 10 μM. From the text:
For example, the level of cAMP production induced by a given compound can be determined by reference to the amount induced by a defined concentration of that compound relative to that induced by the same concentration of a reference compound, such as isoprenaline, using techniques known to those skilled in the art (e.g. following the protocol as described in the biological examples provided in WO 2019/053427, i.e. in cells, such as differentiated L6-myotubes, having been stimulated with isoprenaline or the compound with a final concentration of 1×10^−5 M, for 15 min in stimulation buffer, such as HBSS supplemented with 1% BSA, 5 mM HEPES and 1 mM IBMX, at pH 7.4).
(§1) Compounds described in publications referenced and incorporated herein were screened in accordance with the procedures outlined in Biological example 1 and Biological example 2 of WO 2019/053427.

In experiment [2] the test system is differentiated L6-myotubes. The experiment in a line: Glucose uptake screen (Biological example 1 of WO 2019/053427). Conditions: compound at 10 μM, activity relative to isoproterenol at 10 μM, read-out: Biological example 1 of WO 2019/053427 (GU). The format is cell-based. As to the method: as §1
L6-myoblasts were grown in Dulbecco's Modified Eagle's Medium (DMEM) containing 1 g/L glucose supplemented with 10% fetal bovine serum (FBS), 2 mM L-glutamine, 50 U/mL penicillin, […] streptomycin and 10 mM HEPES. Cells were plated at 1x 10^5 cells per mL in 24-well plates. After reaching 90% confluence the cells were grown in medium containing 2% FBS for 7 days where upon cells differentiated into myotubes. The differentiated L6-myotubes were serum-starved overnight in medium containing 0.5% fatty-acid free BSA and stimulated with Compound A at a final concentration of 1×10^−5 M in the presence of the selective β2-adrenergic receptor antagonist ICI-118551. After 1 h 40 min the cells were washed with warm, glucose free medium twice and another portion of agonist was added to the glucose free medium. After another 20 min of incubation the cells were exposed to 50 nM ^3H-2-deoxyglucose for 10 min before washed in ice cold glucose free medium three times and lysed in 400 µl/well 0.2 M NaOH for 1 h at 60° C. The cell lysate was mixed with 4 ml scintillation buffer (Emulsifier Safe, Perkin Elmer) and the radioactivity was detected in a P-counter (Tri-Carb 4810TR, Perkin Elmer).

A value given as a limit tells only on which side of the number the result lay.

Take `O[C@@H](c1cccc(F)c1)C12CCC(COCc3ccc(Cl)cc3)(CC1)N2` [Compound 395, (S)-(4-{[(p-chlorophenyl)methoxy]methyl}-7-azabicyclo[2.2.1]hept-1-yl)(m-fluorophenyl)methanol]: the Emax at 10 µM in experiment [1] is < 25%; in experiment [2], 50 to 75%.

On to `CO[C@H]1CC[C@@H](CC(C)(C)NC[C@H](O)c2cncc(F)c2)CC1` [Compound 248, (R)-2-{1,1-dimethyl-2-[(1s,4S)-4-methoxycyclohexyl]ethyl-amino}-1-(5-fluoro-3-pyridyl)-1-ethanol], for which the results for the Emax at 10 µM in experiment [1] and in experiment [2] were < 25% and > 75%, respectively.

For `CC(C)(NC[C@H](O)c1cccc(F)c1)[C@H]1CC[C@H](OCC(=O)O)CC1` [Compound 402, [(1R,r)-4-{1-[(R)-2-(m-fluorophenyl)-2-hydroxyethylamino]-1-methylethyl}cyclohexyloxy]acetic acid], the Emax at 10 µM in experiment [1] was < 25%; in experiment [2] it was 50 to 75%.

Regarding `COC(=O)[C@H]1CC[C@@H](CCC(C)(C)NC[C@H](O)c2cncc(F)c2)CC1` [Compound 349, methyl (1S,4s)-4-{3-[(R)-2-(5-fluoro-3-pyridyl)-2-hydroxyethylamino]-3-methylbutyl}cyclohexanecarboxylate], the results for the Emax at 10 µM in experiment [1] and in experiment [2] were 25 to 50% and > 75%, respectively.

Consider `CC(C)(C)NC[C@H](O)c1cccc(F)c1F` [Compound 76, (R)-2-(tert-butylamino)-1-(2,3-difluorophenyl)-1-ethanol], for which the Emax at 10 µM is 25 to 50% in experiment [1] and > 75% in experiment [2].

For the molecule `CC(=O)N[C@H]1CC[C@H](C[C@@H]2CC[C@H]([C@H](O)c3cccc(F)c3)N2)CC1` [Compound 485, N-[(1S,4r)-4-({(2S,5R)-5-[(R)-(m-fluorophenyl)hydroxymethyl]-2-pyrrolidinyl}methyl)cyclohexyl]acetamide], the results for the Emax at 10 µM in experiment [1] and in experiment [2] were < 25% and 50 to 75%, respectively.

Consider `CC(C)(C[C@H]1CC[C@@H](NC(=O)C(C)(C)C)CC1)NC[C@H](O)c1cccc(F)c1` [Compound 455, N-[(1S,4s)-4-{2-[(R)-2-(m-fluorophenyl)-2-hydroxyethylamino]-2-methylpropyl}cyclohexyl]2,2-dimethylpropionamide], for which the values for the Emax at 10 µM in experiment [1] and in experiment [2] were < 25% and 50 to 75%, respectively.

Consider `CC(C)(C[C@H]1CC[C@@H](NS(C)(=O)=O)CC1)NC[C@H](O)c1cccc(C(F)(F)F)n1` [Compound 463, (S)-2-{1,1-dimethyl-2-[(1s,4R)-4-(mesylamino)cyclohexyl]ethylamino}-1-[6-(trifluoromethyl)-2-pyridyl]-1-ethanol], for which the Emax at 10 µM was < 25% in experiment [1] and 50 to 75% in experiment [2].

Regarding `COC(=O)[C@H]1CC[C@H](CC(C)(C)NC[C@H](O)c2cncc(F)c2)CC1` [Compound 354, methyl (1R,4r)-4-{2-[(R)-2-(5-fluoro-3-pyridyl)-2-hydroxyethylamino]-2-methylpropyl}cyclohexanecarboxylate], the Emax at 10 µM was < 25% in experiment [1] and 50 to 75% in experiment [2].

Consider `CC(C)(NC[C@H](O)c1cccc(F)c1)[C@H]1CC[C@@H](OCc2ccccc2)CC1` [Compound 280, (R)-1-(m-fluorophenyl)-2-{1-methyl-1-[(1s,4S)-4-(benzyloxy)cyclohexyl]eth-ylamino}-1-ethanol], for which the Emax at 10 µM in experiment [1] was < 25%; in experiment [2], > 75%.

For the molecule `CC1(C)CC[C@H]([C@H](O)c2cncc(F)c2)N1` [Compound 157, (R)-[(R)-5,5-dimethyl-2-pyrrolidinyl](5-fluoro-3-pyridyl)methanol], the Emax at 10 µM in experiment [1] was < 25%; in experiment [2] it was > 75%.

As for `CC(=O)N[C@H]1CC[C@H](CNC[C@H](O)c2cccc(F)c2)CC1` [Compound 308, N-[(1R,4r)-4-{[(R)-2-(m-fluorophenyl)-2-hydroxyethylamino]methyl}cyclohexyl]acetamide], the Emax at 10 µM is < 25% in experiment [1] and 50 to 75% in experiment [2].

As for `O[C@@H](c1cccc(F)c1)C12CCC(Cc3ccc(F)cc3)(CC1)N2` [Compound 412, (S)-(m-fluorophenyl){4-[(p-fluorophenyl)methyl]-7-azabicyclo[2.2.1]hept-1-yl}methanol], the Emax at 10 µM is < 25% in experiment [1] and 50 to 75% in experiment [2].

Turning to `CO[C@H]1CC[C@@H](CC(C)(C)NC[C@H](O)c2cccc(F)c2)CC1` [Compound 247, (R)-2-{1,1-dimethyl-2-[(1s,4S)-4-methoxycyclohexyl]ethyl-amino}-1-(m-fluorophenyl)-1-ethanol], the Emax at 10 µM in experiment [1] is < 25%; in experiment [2], > 75%.

Consider `CO[C@H]1CC[C@@H](C(C)(C)NC[C@H](O)c2cncc(F)c2)CC1` [Compound 252, (R)-1-(5-fluoro-3-pyridyl)-2-{1-methyl-1-[(1s,4S)-4-methoxycyclohexyl]ethyl-amino}-1-ethanol], for which the Emax at 10 µM in experiment [1] and in experiment [2] was < 25% in each case.

Turning to `CC(C)(C)NC[C@H](O)c1cccc(N)c1F` [Compound 91, (R)-1-(3-amino-2-fluorophenyl)-2-(tert-butylamino)-1-ethanol], the results for the Emax at 10 µM in experiment [1] and in experiment [2] were 25 to 50% and > 75%, respectively.

Consider `CCC[C@H]1CCC[C@H]([C@H](O)c2cccc(F)c2)N1` [Compound 69, (R)-[(2R,6S)-6-propyl-2-piperidyl](m-fluorophenyl)methanol], for which the Emax at 10 µM is < 25% in experiment [1] and 50 to 75% in experiment [2].

For `CO[C@H]1CC[C@H](C[C@H]2CC[C@H]([C@@H](O)c3ccccc3F)N2)CC1` [Compound 338, (S)-[(2R,5R)-5-{[(1r,4R)-4-methoxycyclohexyl]methyl}-2-pyrrolidinyl](o-fluorophenyl)methanol], the Emax at 10 µM in experiment [1] is < 25%; in experiment [2], 50 to 75%.

With `CCCCNCC(O)c1ccc(=O)[nH]c1` (stereo not drawn) [Compound 63, 5-[2-(butylamino)-1-hydroxyethyl]-2(1H)-pyridinone], the Emax at 10 µM in experiment [1] is < 25%; in experiment [2] it was 25 to 50%.

In the case of `CCC[C@@H]1CCC[C@H]([C@@H](O)c2ccccc2F)N1` [Compound 107, (S)-[(2R,6R)-6-propyl-2-piperidyl](o-fluorophenyl)methanol], the Emax at 10 µM is < 25% in experiment [1] and 25 to 50% in experiment [2].

As to `O[C@@H](CNCC[C@H]1CC[C@H](OCc2ccccc2)CC1)c1cncc(F)c1` [Compound 292, (R)-1-(5-fluoro-3-pyridyl)-2-{2-[(1r,4R)-4-(benzyloxy)cyclohexyl]ethylamino}-1-ethanol], the Emax at 10 µM in experiment [1] and in experiment [2] was < 25% throughout.

Turning to `CO[C@H]1CC[C@H](C[C@@H]2CC[C@H]([C@H](O)c3cncc(F)c3)N2)CC1` [Compound 333, (R)-[(2R,5S)-5-{[(1r,4S)-4-methoxycyclohexyl]methyl}-2-pyrrolidinyl](5-fluoro-3-pyridyl)methanol], the Emax at 10 µM is < 25% in experiment [1] and 25 to 50% in experiment [2].

Turning to `O[C@H](c1cccc(F)c1)[C@H]1CC[C@@H](Cc2ccc(Cl)cc2)N1` [Compound 392, (R)-{(2R,5S)-5-[(p-chlorophenyl)methyl]-2-pyrrolidinyl}(m-fluorophenyl)methanol], the Emax at 10 µM in experiment [1] was < 25%; in experiment [2], > 75%.

Turning to `O[C@@H](c1cncc(F)c1)C12CCC(CCc3ccc(OC(F)(F)F)cc3)(CC1)N2` [Compound 543, (S)-(5-fluoro-3-pyridyl){4-[2-(p-trifluoromethoxyphenyl)ethyl]-7-azabicyclo[2.2.1]hept-1-yl}methanol], the Emax at 10 µM in experiment [1] and in experiment [2] was < 25% throughout.

For `CN(C)S(=O)(=O)[C@H]1CC[C@@H](CC(C)(C)NC[C@H](O)c2cncc(F)c2)CC1` [Compound 471, (R)-2-{1,1-dimethyl-2-[(1s,4S)-4-(dimethylaminosulfonyl)cyclohexyl]ethylamino}-1-(5-fluoro-3-pyridyl)-1-ethanol], the Emax at 10 µM in experiment [1] was 50 to 75%; in experiment [2], > 75%.

Consider `Cc1ncccc1[C@@H](O)CNC(C)(C)C[C@H]1CC[C@@H](NS(C)(=O)=O)CC1` [Compound 437, (R)-2-{1,1-dimethyl-2-[(1s,4S)-4-(mesylamino)cyclohexyl]ethylamino}-1-(2-methyl-3-pyridyl)-1-ethanol], for which the Emax at 10 µM in experiment [1] was < 25%; in experiment [2], 25 to 50%.

As for `O[C@@H](CNC[C@H]1CC[C@H](OCc2ccccc2)CC1)c1cccc(F)c1` [Compound 271, (R)-1-(m-fluorophenyl)-2-({[(1r,4R)-4-(benzyloxy)cyclohexyl]methyl}amino)-1-ethanol], the Emax at 10 µM in experiment [1] was < 25%; in experiment [2] it was 25 to 50%.
